Publication PMC12763877 (Journal of Experimental & Clinical Cancer Research : CR, 2025)

What was measured:
HUVEC [1] = assay: DNA damage: γ-H2AX western blot and alkaline comet assay; format: cell-based, human
Experimental: (§1) Total protein was extracted using RIPA lysis buffer (Solarbio, China) supplemented with phenylmethylsulfonyl fluoride (PMSF; Thermo Fisher Scientific, USA), protease inhibitor cocktail (Roche, Switzerland), and phosphatase inhibitor cocktail (Roche, Switzerland). Protein concentration was determined using a BCA protein assay kit (Thermo Fisher Scientific, USA). Equal amounts of protein were separated by 10% SDS-polyacrylamide gel electrophoresis (SDS-PAGE) and transferred onto nitrocellulose (NC) membranes. […] All primary antibodies were purchased from Cell Signaling Technology (CST, USA), except for GAPDH, which was obtained from Proteintech (Wuhan, China). After washing, the membranes were incubated with HRP-conjugated goat anti-rabbit or anti-mouse IgG secondary antibodies (Biosharp, China) for 1 h at room temperature. Protein bands were visualized using an enhanced chemiluminescence (ECL) detection system and scanned using a chemiluminescence imaging system.

[2] = test system: STING signaling pathway in HUVEC; assay: Western blot of STING pathway proteins; format: cell-based, human; settings: NAC 5 mM pretreatment 2 h + candesartan 15 µM 48 h
Experimental: as §1

zebrafish embryos = assay: Zebrafish embryo toxicity; format: in vivo, zebrafish (Danio rerio); settings: embryos exposed 12 to 48 hpf, survival
Experimental: Transgenic zebrafish Tg(flk: EGFP) were obtained from the China Zebrafish Resource Center and maintained at 28 ± 1 °C under a 14-hour light/10-hour dark cycle. […] Survival rates were recorded to calculate the median lethal concentration (LC₅₀). For the retinal angiogenesis assay, embryos at 1 day post fertilization (dpf) were transferred to E3 medium containing 5 mM CoCl₂·6 H₂O and 2.5 µg/mL GS4012 to induce hypoxia and abnormal vessel formation. At 3 dpf, test compounds were added and incubation continued until 5 dpf. Blank, model, and vehicle (≤ 0.1% DMSO) controls were included, with at least three replicates per group (n = 10–15 embryos). At 5 dpf, retinal vasculature was imaged using fluorescence microscopy and analyzed for branching number, vessel length, and density using ImageJ. Data are presented as mean ± standard deviation (SD) and analyzed using one-way ANOVA followed by Tukey’s post hoc test, with p < 0.05 considered statistically significant.
The zebrafish (Danio rerio) model was employed due to its distinct advantages, the optical transparency, which enable in vivo vascular visualization. […] Firstly, the 8 candidate compounds underwent preliminary toxicity evaluation in zebrafish embryos. […] At 48 hpf, the number of surviving embryos was quantified, and the lethal dose 50 (LD50) for each compound was determined based on the survival data. […]

[3] = test system: pathological choroidal neovascularization; set-up: method as in PMID 30208056; settings: mouse model; cited from earlier work
APLNR = target: T1, APLNR (Homo sapiens, UniProt P35414); set-up: expressed in transfected cells; host or cells: HEK293; settings: cited from earlier work
T1 sequence (P35414 1-380): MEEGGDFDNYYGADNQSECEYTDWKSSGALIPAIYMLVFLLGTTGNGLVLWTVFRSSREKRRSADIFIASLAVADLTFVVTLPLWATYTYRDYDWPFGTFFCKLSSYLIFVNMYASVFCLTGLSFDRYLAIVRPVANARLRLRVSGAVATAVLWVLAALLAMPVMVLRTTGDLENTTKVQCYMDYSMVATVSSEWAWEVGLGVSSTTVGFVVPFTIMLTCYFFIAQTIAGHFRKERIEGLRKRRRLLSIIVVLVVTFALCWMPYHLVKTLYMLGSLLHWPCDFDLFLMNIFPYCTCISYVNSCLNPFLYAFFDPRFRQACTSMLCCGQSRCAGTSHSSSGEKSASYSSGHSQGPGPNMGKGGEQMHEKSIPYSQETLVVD

[4] = test system: FAK-MMP9 signaling in HUVEC; assay: Western blot of FAK and MMP-9; format: cell-based, human
Experimental: as §1

HUVEC [5] = assay: Tube formation assay; format: cell-based, human; settings: candesartan 15, 7.5, 3.75 µM; sunitinib 2 µM
Experimental: The 96-well plate was coated with 50 µl matrix glue per well, and then HUVEC was inoculated into the 96-well plate coated with matrix glue with a density of 4 × 10^4 cells per well. Photos were taken with an optical microscope (Nikon, China) after culture at 37℃ and 5% CO2 for 6–8 h, and the length of the generated blood vessels was analyzed using ImageJ.

HUVEC [6] = assay: Wound healing and Transwell assays; format: cell-based, human; settings: candesartan 15, 7.5, 3.75 µM; sunitinib 2 µM; 48 h
Experimental: HUVEC cells were digested and inoculated into 6-well plates, with 1 × 10^5 cells added to each hole. On the second day, the gun head was drawn vertically along the edge of the upper lid of the hole plate. The cells were washed twice with PBS, the scratched cells were removed, and the serum free medium containing drugs was added. The photos were taken and recorded under the microscope for 0 h and cultured in a 5% CO2 incubator at 37℃. After 48 h, the sample was taken and photographed for recording. The cell scratch area was calculated with Image J software.
Migration assays were performed using the Transwell cell culture insert. HUVEC (3 × 10^4 cells) were suspended with 100µL serum-free medium containing different concentrations of compounds and placed in the upper layer of the Transwell cell culture insert, and 300µL medium containing 10% FBS was placed below the cell-permeable membrane. Following an incubation (48 h), the cells that had migrated through the membrane were stained with 0.2% crystal violet for 30 min and count.

SMILES: CC(=O)N[C@@H](CS)C(=O)O [NAC, N-acetylcysteine]
- Effect on candesartan-induced γ-H2AX expression (HUVEC [1]; NAC 5 mM + candesartan 15 µM): significantly reduced γ-H2AX expression
- Effect on candesartan-induced DNA damage (comet assay) (HUVEC [1]; NAC 5 mM pre-treatment + candesartan 15 µM): effectively mitigate candesartan-induced DNA damage
- Effect on candesartan-induced STING pathway upregulation [2]: attenuated candesartan-induced upregulation of STING pathway components

SMILES: CSCC[C@H](NC(=O)[C@@H]1CCCN1C(=O)CNC(=O)[C@H](CCCCN)NC(=O)[C@H](Cc1c[nH]cn1)NC(=O)[C@H](CO)NC(=O)[C@H](CC(C)C)NC(=O)[C@H](CCCNC(=N)N)NC(=O)[C@@H]1CCCN1C(=O)[C@H](CCCNC(=N)N)NC(=O)[C@@H](N)CCC(N)=O)C(=O)N1CCC[C@H]1C(=O)N[C@@H](C)C(=O)O [Compound F13A]
- LD50(µM,48 h) (zebrafish embryos): 2.85 ± 0.31 µM

SMILES: CCN(CC)Cc1cc(Nc2ccnc3cc(Cl)ccc23)ccc1O [Amodiaquine]
- Pathological choroidal neovascularization [3]: reduces pathological choroidal neovascularization
- Inhibition of APLN/APLNR signaling (APLNR): inhibits APLN/APLNR signaling in a concentration-dependent manner

SMILES: CCN(CC)CCNC(=O)c1c(C)[nH]c(/C=C2\C(=O)Nc3ccc(F)cc32)c1C [Sunitinib]
- Expression of MMP9 and FAK [4]: significantly decreased the expression of MMP9 and FAK
- Tube formation: mean mesh size and total mesh area (HUVEC [5]): increase the mean mesh and the total meshe area
- Tube formation: number of junctions, total segment length, number of meshes (HUVEC [5]): significantly reduced the number of junctions, total segment length, and the number of meshes
- Migratory and invasive capacities of HUVECs (HUVEC [6]): significantly reduced the migratory and invasive capacities of HUVECs
